Data on eight molecules can be found in ChEMBL document CHEMBL3352229, “20(S)-Ginsenoside Rh2 as aldose reductase inhibitor from Panax ginseng” (Bioorg Med Chem Lett, 2014).

The target in the experiment is Aldo-keto reductase family 1 member B1 (Homo sapiens, UniProt P15121). In words: Inhibition of human recombinant aldose reductase using DL-glyceraldehyde, HRAR and beta-NADPH incubated for 10 mins by spectrophotometry.
For the molecule `CC(C)=CCC[C@@](C)(O)[C@H]1CC[C@]2(C)[C@@H]1[C@H](O)C[C@@H]1[C@@]3(C)CC[C@H](O[C@@H]4O[C@H](CO)[C@@H](O)[C@H](O)[C@H]4O[C@@H]4O[C@H](CO)[C@@H](O)[C@H](O)[C@H]4O)C(C)(C)[C@@H]3CC[C@]12C`, the IC50 was over 200 µM. With `CC(C)=CCC[C@@](C)(O)[C@H]1CC[C@]2(C)[C@@H]1[C@H](O)C[C@@H]1[C@@]3(C)CC[C@H](O[C@@H]4O[C@H](CO)[C@@H](O)[C@H](O)[C@H]4O)C(C)(C)[C@@H]3CC[C@]12C` the figure was over 200 µM; with `CC(C)=CCC[C@](C)(O)[C@H]1CC[C@@]2(C)[C@@H]1[C@@H](O)C[C@@H]1[C@@]3(C)CC[C@H](O)C(C)(C)[C@@H]3[C@@H](O[C@@H]3O[C@H](CO)[C@@H](O)[C@H](O)[C@H]3O[C@@H]3O[C@H](CO)[C@@H](O)[C@H](O)[C@H]3O)C[C@]12C`, over 200 µM. As for `CC(C)=CCC[C@](C)(O[C@@H]1O[C@H](CO)[C@@H](O)[C@H](O)[C@H]1O)[C@H]1CC[C@]2(C)[C@@H]1[C@H](O)C[C@@H]1[C@@]3(C)CC[C@H](O)C(C)(C)[C@@H]3CC[C@]12C`, the figure is over 200 µM; as for `CC(C)=CCC[C@](C)(O)[C@H]1CC[C@]2(C)[C@@H]1[C@H](O)C[C@@H]1[C@@]3(C)CC[C@H](O[C@@H]4O[C@H](CO)[C@@H](O)[C@H](O)[C@H]4O[C@@H]4O[C@H](CO)[C@@H](O)[C@H](O)[C@H]4O)C(C)(C)[C@@H]3CC[C@]12C`, over 200 µM; as for `CC(C)=CCCC(C)(O)[C@H]1CC[C@]2(C)[C@@H]1[C@H](O)C[C@@H]1[C@@]3(C)CC[C@H](O[C@@H]4O[C@H](CO)[C@@H](O)[C@H](O)[C@H]4O)C(C)(C)[C@@H]3CC[C@]12C` (mixture of isomers), over 200 µM. On to `CC(C)=CCC[C@](C)(O)[C@H]1CC[C@]2(C)[C@@H]1[C@H](O)C[C@@H]1[C@@]3(C)CC[C@H](O)C(C)(C)[C@@H]3[C@@H](O[C@@H]3O[C@H](CO)[C@@H](O)[C@H](O)[C@H]3O)C[C@]12C` [GINSENOSIDE RH1], for which the IC50 is over 200 µM. With `CC(C)=CCC[C@](C)(O)[C@H]1CC[C@]2(C)[C@@H]1[C@H](O)C[C@@H]1[C@@]3(C)CC[C@H](O[C@@H]4O[C@H](CO)[C@@H](O)[C@H](O)[C@H]4O)C(C)(C)[C@@H]3CC[C@]12C` [GINSENOSIDE RH2] the figure was 147 µM.
